This is an account of results in patent publication US5710151A, “Method of treating urinary bladder dysfunctions” (priority 1996, dated 1998).

Structures can show the parent of a compound that is named as a salt.

In the experiment the target is muscarinic receptors. Briefly: inhibition of binding of 3H-oxotremorine-M to muscarinic receptors. Particulars: 3 nM 3H-oxotremorine-M, rat cerebral cortical membranes, pH 7.4, 15 min, 25° C.; read-out: Inhibition of ^3 H-Oxo. The protocol: The affinity of the compounds for the muscarinic receptors was determined using the non-selective agonist ligand, ^3 H-oxotremorine-M. Birdsdall N. J. M., Hulme E. C., and Burgen A. S. V. "The Character of Muscarinic Receptors in Different Regions of the Rat Brain", 207 Proc. Roy. Soc. 1 (London, Series B, 1980). Each compound was tested to determine the affinity of the compound for the muscarinic receptors using the following procedure.
For in vitro binding, male Sprague-Dawley (Harlan Sprague-Dawley, Indianapolis, Ind.) rats weighing from about 100 to about 150 grams each were sacrificed by decapitation. The brains were quickly removed and the cerebral cortex were dissected from the brain. The cerebral cortex tissue was homogenized in 10 volumes of 0.32M sucrose and […] at about 1000×g. The supernatant was centrifuged at about 12,000×g for about 10 minutes and the resulting pellet was resuspended in 20 mM tris-Cl, pH 7.4. The resuspended pellet was centrifuged again for about 10 minutes at about 50,000×g. The resulting homogenate was preincubated for about 10 minutes at about 25° C. and centrifuged again for about 10 minutes at about 50,000×g. The pellet was resuspended at 1 gram of pellet per 3 ml of buffer and frozen at about -80° C. until used.
The inhibition of binding of ^3 H-oxotremorine-M to muscarinic receptors was determined by mixing the compound of the Example, 3 nM ^3 H-oxotremorine-M (about 87 Ci/mmoles, New England Nuclear, Boston Mass.), and cerebral cortical membranes equivalent to about 10 mg wet weight, which is about 100 μg of cortical membrane protein, in about 1 ml total volume of […] tris-Cl buffer, pH 7.4, containing 1 mM MnCl2. The aforementioned homogenates mixture was incubated for about 15 minutes at about 25° C. and then the homogenates were filtered through glass filters (Whatman, GF/C) with vacuum. The filters were washed 3 times with about 2 ml of cold tris-Cl buffer, and placed in scintillation vials containing about 10 ml of scintillation fluid (Ready Protein+, Beckman, Fullerton, Calif.). Radioactivity trapped on the filters was determined by liquid scintillation spectrometry. Nonspecific binding was determined using 1 μM atropine. The concentration of compound required to inhibit specific binding 50% (IC50) was determined using standardized computer assisted calculations (DeLean, A. et al. Am. J. Physiol., 235, (1978)).
For the molecule `CCOc1nsnc1[C@@H]1CN2CCC[C@@H]1C2` (relative stereo) [Compound 19, Exo-6-(3-ethoxy-1,2,5-thiadiazol-4-yl)-1-azabicyclo[3.2.1]octane oxalate], the IC50 came to 1.2 nM.
The same measure for `CCCCCCSc1nsnc1[C@@H]1CN2CCC[C@@H]1C2` (relative stereo) [Compound 29, Exo-6-(3-hexylthio-1,2,5-thiadiazol-4-yl)-1-azabicyclo[3.2.1]octane oxalate]: 1.2 nM.
The value for `CCCCSc1nsnc1[C@@H]1CN2CCC[C@@H]1C2` (relative stereo) [Compound 30, Exo-6-(3-butylthio-1,2,5-thiadiazol-4-yl)-1-azabicyclo[3.2.1]octane oxalate] was 0.4 nM; that for `CCCCCSc1nsnc1[C@@H]1CN2CCC[C@@H]1C2` (relative stereo) [Compound 31, Exo-6-(3-pentylthio-1,2,5-thiadiazol-4-yl)-1-azabicyclo[3.2.1]octane oxalate] was 1.8 nM.
Take `CCSc1nsnc1[C@@H]1CN2CCC[C@@H]1C2` (relative stereo) [Compound 32, Exo-6-(3-ethylthio-1,2,5-thiadiazol-4-yl)-1-azabicyclo[3.2.1]octane oxalate]: the IC50 came to 1.3 nM.
With `CCCSc1nsnc1[C@@H]1CN2CCC[C@@H]1C2` (relative stereo) [Compound 58, Exo-6-(3-propylthio-1,2,5-thiadiazol-4-yl)-1-azabicyclo[3.2.1]octane oxalate], the IC50 came to 0.8 nM.
Take `CCCCCOc1nsnc1[C@@H]1CN2CCC[C@@H]1C2` (relative stereo) [Compound 59, Exo-6-(3-pentyloxy-1,2,5-thiadiazol-4-yl)-1-azabicyclo[3.2.1]octane oxalate]: the IC50 is 1 nM.
In the case of `CSc1nsnc1[C@@H]1CN2CCC[C@@H]1C2` (relative stereo) [Compound 74, Exo-6-(3-methylthio-1,2,5-thiadiazol-4-yl)-1-azabicyclo[3.2.1]octane oxalate], the IC50 amounted to 1.4 nM.
The value for `CC(C)CCCSc1nsnc1[C@@H]1CN2CCC[C@@H]1C2` (relative stereo) [Compound 76, Exo-6-(3-isohexylthio-1,2,5-thiadiazol-4-yl)-1-azabicyclo[3.2.1]octane oxalate] was 7.7 nM; that for `CC(C)CCSc1nsnc1[C@@H]1CN2CCC[C@@H]1C2` (relative stereo) [Compound 77, Exo-6-(3-isopentylthio-1,2,5-thiadiazol-4-yl)-1-azabicyclo[3.2.1]octane] was 2.7 nM; that for `N#Cc1ccc(CSc2nsnc2[C@@H]2CN3CCC[C@@H]2C3)cc1` (relative stereo) [Compound 82, Exo-6-(3-(4-cyanobenzylthio)-1,2,5-thiadiazol-4-yl)-1-azabicyclo[3.2.1]octane oxalate] was 1.3 nM.
As for `CCCOc1nsnc1[C@@H]1CN2CCC[C@@H]1C2` (relative stereo) [Compound 119, Exo-6-(3-propoxy-1,2,5-thiadiazol-4-yl)-1-azabicyclo[3.2.1]octane oxalate], the IC50 amounted to 0.9 nM.
For `CCCCOc1nsnc1[C@@H]1CN2CCC[C@@H]1C2` (relative stereo) [Compound 120, Exo-6-(3-butoxy-1,2,5-thiadiazol-4-yl)-1-azabicyclo[3.2.1]octane oxalate], the IC50 turned out to be 0.9 nM.
`CCCCCCOc1nsnc1[C@@H]1CN2CCC[C@@H]1C2` (relative stereo) [Compound 122, Exo-6-(3-hexyloxy-1,2,5-thiadiazol-4-yl)-1-azabicyclo[3.2.1]octane oxalate]: the IC50 is 2.1 nM.
As for `c1ccc(OCCSc2nsnc2[C@@H]2CN3CCC[C@@H]2C3)cc1` (relative stereo) [Compound 133, Exo-6-(3-(2-phenoxyethylthio)-1,2,5-thiadiazol-4-yl)-1-azabicyclo[3.2.1]octane oxalate], the IC50 came to 1.3 nM.
The value for `CCCCSc1nsnc1C1CN2CCC1CC2` (single isomer, unassigned) [Compound 56, (+) 3-(3-Butylthio-1,2,5-thiadiazol-4-yl)-1-azabicyclo[2.2.2]octane (-)D-tartrate] was 0.4 nM; that for `CCOc1nsnc1C1CN2CCC1CC2` (stereo not drawn) [Compound 9, 3-(3-Ethoxy-1,2,5-thiadiazol-4-yl)-1-azabicyclo[2.2.2]octane fumarate] was 2.1 nM; that for `CCCCSc1nsnc1C1CN2CCC1CC2` (stereo not drawn) [Compound 13, 3-(3-Butylthio-1,2,5-thiadiazol-4-yl)-1-azabicyclo[2.2.2]octane fumarate] was 1.9 nM.
As for `CCCCOc1nsnc1C1CN2CCC1CC2` (stereo not drawn) [Compound 46, 3-(3-Butoxy-1,2,5-thiadiazol-4-yl)-1-azabicyclo[2.2.2]octane oxalate], the IC50 turned out to be 1.6 nM.
For `CCSc1nsnc1C1CN2CCC1CC2` (stereo not drawn) [Compound 52, 3-(3-Ethylthio-1,2,5-thiadiazol-4-yl)-1-azabicyclo[2.2.2]octane oxalate], the IC50 was 1.8 nM.
Regarding `CCCSc1nsnc1C1CN2CCC1CC2` (stereo not drawn) [Compound 53, 3-(3-Propylthio-1,2,5-thiadiazol-4-yl)-1-azabicyclo[2.2.2]octane oxalate], the IC50 was determined as 0.9 nM.
For the molecule `c1ccc(OCCSc2nsnc2C2CN3CCC2CC3)cc1` (stereo not drawn) [Compound 102, 3-(3-(2-Phenoxyethylthio)-1,2,5-thiadiazol-4-yl)-1-azabicyclo[2.2.2]octane fumarate], the IC50 is 4.5 nM.
Consider `N#CCSc1nsnc1C1CN2CCC1CC2` (stereo not drawn) [Compound 103, 3-(3-Cyanomethylthio-1,2,5-thiadiazol-4-yl)-1-azabicyclo[2.2.2]octane oxalate], for which the IC50 is 2.7 nM.
Turning to `c1csc(CCCSc2nsnc2C2CN3CCC2CC3)c1` (stereo not drawn) [Compound 104, 3-(3-(3-(2-Thienyl)propylthio)-1,2,5-thiadiazol-4-yl)-1-azabicyclo[2.2.2]octane fumarate], the IC50 amounted to 2.6 nM.
Consider `Cn1nnnc1SCCCCSc1nsnc1C1CN2CCC1CC2` (stereo not drawn) [Compound 106, 3-(3-(1-Methyltetrazol-5-ylthio)butylthio-1,2,5-thiadiazol-4-yl)-1-azabicylo[2.2.2]octane oxalate], for which the IC50 was 2.8 nM.
The value for `Cc1nnc(SCCCCSc2nsnc2C2CN3CCC2CC3)s1` (stereo not drawn) [Compound 107, oxalate] was 1 nM.
Turning to `CCCCSc1nsnc1[C@@H]1CN2CCC[C@@H]1C2` [Compound 111, (5S,6S)-6-(3-butylthio-1,2,5-thiadiazol-4-yl)-1-azabicyclo[3.2.1]octane (+) L-tartrate], the IC50 came to 1 nM.
For `CCCCSc1nsnc1[C@H]1CN2CCC[C@H]1C2` [Compound 112, (5R,6R)-6-(3-butylthio-1,2,5-thiadiazol-4-yl)-1-azabicyclo[3.2.1]octane (-) D-tartrate], the IC50 was determined as 0.6 nM.
Take `CCCSc1nsnc1[C@H]1CN2CCC[C@H]1C2` [Compound 113, (5R,6R)-6-(3-propylthio-1,2,5-thiadiazol-4-yl)-1-azabicyclo[3.2.1]octane (+) L-tartrate]: the IC50 is 0.89 nM.
Turning to `CCCSc1nsnc1[C@@H]1CN2CCC[C@@H]1C2` [Compound 114, (5S,6S)-6-(3-propylthio-1,2,5-thiadiazol-4-yl)-1-azabicyclo[3.2.1]octane (-) D-tartrate], the IC50 stood at 0.45 nM.
